The values below come from patent US9464007B2, “Antifungal wallboards and building materials and methods for the production thereof” (priority 2004, dated 2016).

What all share (type): cell-based
For experiment [1], the system named is Penicillium citrinum. Briefly: Liquid culture assay on 24 well plates, solo ai (EC95/MIC). Conditions: P. citrinum; for EC95: 24° C., 3-6 days; for MIC: Penicillium citrinum, rates 0-100 mg ai/l, mean values of n = 5, read-out: MIC Minimal Inhibition concentration. As to the method: (§1) Alternaria tenuissima, Penicillium citrinum, Stachybotrys chartarum, Aspergillus niger and Aureobasidium pullulans were separately cultivated on PDA media to […] sporulation. Spore suspensions were produced for each fungi.
(§2) Test method used: liquid culture assay on 24 well plates.
(§3) For solo (i.e. single) ai testing the formulated fungicide (100 ul) was filled into the 24 well plates (8 different rates: 100-0.05 mg ai/l final volume as described above) and 100 ul distilled water was added. Afterwards 800 ul of 0.3% PDA media was added to the plate. The spore suspension of the specific fungi was added to this media in advance containing approx. 100.000 spores/ml. The 24 well plates were sealed and incubated at 24° C.
(§4) Dependent on the growth properties of each organisms, the evaluation was done after 3 to 6 days, when the surface of the check well was covered with mycelium. The evaluation was performed by assessing the growth of the fungi related to the check growth. The results are expressed as % activity relative to the check (values of 0-100% growth). Afterwards the results were converted in % growth inhibition. EC95 values and also MIC (minimal inhibition concentration) values were derived for each compound.
(§5) For each solo compound a graph was drawn of percentage inhibition against the concentration of the fungicide. […] Also the concentration that gave the minimum inhibition concentration was derived as MIC value

The test system of experiment [2] is Aspergillus niger. The description is as above. Particulars: A. niger; for EC95: 24° C., 3-6 days; for MIC: Aspergillus niger, rates 0-100 mg ai/l, mean values of n = 5, read-out: MIC Minimal Inhibition concentration. As for the experimental part: as §1, §2, §3, §4, §5
In experiment [3] the test system is Aureobasidium pullulans. Described as above. Particulars: A. pullulans; for EC95: 24° C., 3-6 days; for MIC: Aureobasidium pullulans, rates 0-100 mg ai/l, mean values of n = 5, read-out: MIC Minimal Inhibition concentration. As for the experimental part: as §1, §2, §3, §4, §5
Experiment [4] concerns Stachybotrys chartarum. The description is as above. Particulars: S. chartarum; for EC95: 24° C., 3-6 days; for MIC: Stachybotrys chartarum, rates 0-100 mg ai/l, mean values of n = 5, read-out: MIC Minimal Inhibition concentration. As for the experimental part: as §1, §2, §3, §4, §5
A further experiment relates to Alternaria tenuissima. Described as above. Particulars: A. tenuissima; for EC95: 24° C., 3-6 days; for MIC: Alternaria tenuissima, rates 0-100 mg ai/l, mean values of n = 5, read-out: MIC Minimal Inhibition concentration. As to the method:
as §1, §2, §3, §4, §5

For experiment [5], the system named is Aureobasidium pullulans. Briefly: Synergy testing of 2-way mixtures, 24 well plates. Particulars: A. pullulans. As to the method:
(§6) For synergism testing of the 2-way mixtures 100 ul of each fungicide were filled into the 24 well plates (8 different rates) and 800 ul of 0.3% PDA media containing the spore suspension was added (see above). Different ratios of the 2 fungicide rates were tested at the same time.
as §1
(§7) For the mixtures of different fungicides the synergism was calculated based on the Colby equation, which is described below: […]
(§8) The fungicidal action to be expected, We, for a given combination of two fungicides can be calculated as follows (see COLBY, S. R. “Calculating synergistic and antagonistic response of herbicide combinations”. Weeds 15, pages 20-22; 1967): We=X+[Y×(100−X)/100] wherein:
(§9) If the activity actually observed is greater than the expected value We, there is a synergistic effect.
(§10) All rates below are expressed as mg ai/l (i.e. ppm).

The test system of experiment [6] is Cladosporium cladosporioides. Briefly: Fungal growth on agar medium containing fungicide, petri dish, visual assessment. Conditions: for EC50: 624 h, read-out: Concentration required for 50% Activity; for EC50 / Concentration required for 80% Activity: after 26 days at 20° C. As for the experimental part:
(§11) A fungal growth medium was made comprising yeast extract (4 g) agar (8 g), magnesium sulphate (0.2 g), sodium nitrate (2.4 g), potassium chloride (0.2 g), potassium dihydrogen orthophosphate (0.6 g), glycerol (8 ml), distilled water (390 ml). Fungicides as set out in Tables 1 to 4 were added at levels of 5000, 100, 10, 1, 0.1 and 0.01 mg fungicide/liter of growth medium to give six different growth medium compositions for each fungicide. These growth media containing the fungicide were each put into petri dishes.
(§12) Cladosporium cladosporoides, Oligoporus placenta, Stachybotrys chartarum and Memnionella echinata were separately propagated on Luria agar to suppress sporulation and mycelial plugs were transferred upside down onto the petri dishes containing the growth medium.
(§13) A visual assessment was made of the surface of the petri dishes. The result recorded was the percentage of the surface that remained free of fungus. This was recorded as percentage activity
(§14) For each fungicide, a graph was drawn of percentage activity against concentration of fungicide in the growth medium. From this graph, the concentrations of fungicide required to achieve 50%, 80% and 95% activity was estimated. These figures are given in the results tables.
3. Cladosporium cladosporioides; Results after 26 days at 20° C.

Experiment [7] deals with Stachybotrys chartarum. Described as above. Particulars: for EC50: 528 h, read-out: Concentration required for 50% Activity; for EC50 / Concentration required for 80% Activity: after 22 days at 25° C. As for the experimental part: as §11, §12, §13, §14
1. Stachybotrys chartarum; Results after 22 days at 25° C.

The subject of a further experiment is Oligoporus placenta. Described as above. As to the method:
as §11, §12, §13, §14
4. Oligoporus placenta; Results.

The test system of the next experiment is Memnionella echinata. Described as above. Particulars: after 23 days at 25° C.; for EC50: 552 h, read-out: Concentration required for 50% Activity. As to the method:
as §11, §12, §13, §14
2. Memnionella echinata; Results after 23 days at 25° C.

The subject of experiment [8] is Penicillium citrinum. Briefly: Synergy testing of 2-way mixtures, 24 well plates. Particulars: P. citrinum, PPZ + DFZ test. As to the method:
as §6, §1, §7, §8, §9, §10

For experiment [9], the system named is Aspergillus niger. Briefly: Synergy testing of 2-way mixtures, 24 well plates. Conditions: A. niger; for inh % (DFZ alone): rate (DFZ) 0.8 mg ai/l. As for the experimental part:
as §6, §1, §7, §8, §9, §10

In brackets after ≈: the same amount, converted by molar mass. Several values for one entry are separate records, joined by “and”; a condition that tells them apart may be missing. Identical values can stand only once. Where only a bound is given, the exact number is not on record here.

Turning to `Cc1cc(C2CC2)nc(Nc2ccccc2)n1` [Cyprodinil], the EC95 in the experiment with Penicillium citrinum [1] was >100 mg ai/l; with Aspergillus niger [2] it was 7.4 mg ai/l; in the experiment on Aureobasidium pullulans [3] it was >100 mg ai/l; in the experiment on Stachybotrys chartarum [4], 46 mg ai/l; in the experiment with Alternaria tenuissima, >100 mg ai/l. Further, the MIC in the experiment with Penicillium citrinum [1] is > 100 µg/mL; with Aspergillus niger [2], 12.5 µg/mL (≈ 55.5 µM); in the experiment with Aureobasidium pullulans [3], > 100 µg/mL; in the experiment on Stachybotrys chartarum [4], 50 µg/mL (≈ 222 µM); in the experiment on Alternaria tenuissima it was > 100 µg/mL. In addition, the “inh % (CDL alone)” value is 0% in the experiment with Aureobasidium pullulans [5] (rate (CDL) 0.8 mg ai/l); 10% in the experiment on Aureobasidium pullulans [5] (rate (CDL) 1.6 mg ai/l); 10% with Aureobasidium pullulans [5] (rate (CDL) 3.1 mg ai/l); 30% in the experiment on Aureobasidium pullulans [5] (rate (CDL) 12.5 mg ai/l); 30% with Aureobasidium pullulans [5] (rate (CDL) 50 mg ai/l); 30% with Aureobasidium pullulans [5] (rate (CDL) 100 mg ai/l).
Consider `CCCC1COC(Cn2cncn2)(c2ccc(Cl)cc2Cl)O1` (stereo not shown) [Propiconazole], for which the results for the “Concentration required for 95% Activity” value (in experiment [6]; in the experiment on Stachybotrys chartarum [7]; with Oligoporus placenta) were 4.5 mg/L, 360 mg/L and 0.4 mg/L, respectively. In addition, the figures for the EC50 (in experiment [6]; in the experiment on Stachybotrys chartarum [7]; in the experiment on Memnionella echinata) were 0.19 µg/mL (≈ 0.555 µM), 15 µg/mL (≈ 43.8 µM) and 88 µg/mL (≈ 257 µM), respectively. The “Concentration required for 80% Activity” value in experiment [6] is 1.7 mg/L; in the experiment with Stachybotrys chartarum [7] it was 49 mg/L; in the experiment on Memnionella echinata, >100 mg/L. Further, the “inh % (PPZ alone)” value in the experiment with Penicillium citrinum [8] (rate (PPZ) 0.8 mg ai/l) turned out to be 70%.
On to `c1ccc2[nH]c(-c3cscn3)nc2c1` [Thiabendazole], for which the “Concentration required for 95% Activity” value in experiment [6] is 8 mg/L; in the experiment with Stachybotrys chartarum [7], 91 mg/L; with Oligoporus placenta, >5000 mg/L. Moreover, the EC50 worked out at 0.78 µg/mL (≈ 3.88 µM) in experiment [6], 17 µg/mL (≈ 84.5 µM) with Stachybotrys chartarum [7] and 28 µg/mL (≈ 139 µM) in the experiment on Memnionella echinata. Also, the “Concentration required for 80% Activity” value came out at 3.5 mg/L in [6], 49 mg/L in the experiment on Stachybotrys chartarum [7] and 65 mg/L in the experiment on Memnionella echinata. The EC95 in the experiment on Penicillium citrinum [1] is given as 0.72 mg ai/l; in the experiment on Aspergillus niger [2] it was 3.1 mg ai/l; in the experiment with Aureobasidium pullulans [3], 15 mg ai/l; with Stachybotrys chartarum [4], 46 mg ai/l; in the experiment on Alternaria tenuissima, >100 mg ai/l. The MIC is 0.8 µg/mL (≈ 3.98 µM) with Penicillium citrinum [1]; 3.1 µg/mL (≈ 15.4 µM) in the experiment with Aspergillus niger [2]; 50 µg/mL (≈ 248 µM) with Aureobasidium pullulans [3]; 50 µg/mL (≈ 248 µM) in the experiment with Stachybotrys chartarum [4]; > 100 µg/mL in the experiment with Alternaria tenuissima. In addition, the “inh % (TBZ alone)” value with Aspergillus niger [9] (rate (TBZ) 1.6 mg ai/l) was determined as 10%; in the experiment on Aureobasidium pullulans [5] (rate (TBZ) 12.5 mg ai/l), 70%.
On to `CC1COC(Cn2cncn2)(c2ccc(Oc3ccc(Cl)cc3)cc2Cl)O1` (stereo not shown) [Difenoconazole], for which the “Concentration required for 95% Activity” value in experiment [6] is 0.79 mg/L; in the experiment on Stachybotrys chartarum [7], 23 mg/L; in the experiment with Oligoporus placenta, <0.1 mg/L. For the same compound, the values for the EC50 (in [6]; in the experiment with Stachybotrys chartarum [7]; in the experiment on Memnionella echinata) were 0.04 µg/mL (≈ 0.0985 µM), 0.68 µg/mL (≈ 1.67 µM) and 5.4 µg/mL (≈ 13.3 µM), respectively. Moreover, the figures for the “Concentration required for 80% Activity” value (in experiment [6]; with Stachybotrys chartarum [7]; in the experiment with Memnionella echinata) were 0.28 mg/L, 3.5 mg/L and 43 mg/L, respectively. Moreover, the “inh % (DFZ alone)” value is 0% with Penicillium citrinum [8] (rate (DFZ) 0.05 mg ai/l); 10% in the experiment with Penicillium citrinum [8] (rate (DFZ) 0.2 mg ai/l); 30% in the experiment with Penicillium citrinum [8] (rate (DFZ) 0.8 mg ai/l); 10% in the experiment on Aspergillus niger [9] (DFZ + TBZ test); 30% in the experiment on Aspergillus niger [9] (PPZ + DFZ test); 10% in the experiment with Aureobasidium pullulans [5] (rate (DFZ) 0.05 mg ai/l, PPZ + DFZ test). Moreover, the “inh % (DFZ alone)” value in the experiment with Aureobasidium pullulans [5] (rate (DFZ) 0.2 mg ai/l, DFZ + FDL test) was 70%; in the experiment on Aureobasidium pullulans [5] (rate (DFZ) 0.2 mg ai/l, DFZ + TBZ test, listed as DFZ), 70% and 90%; in the experiment on Aureobasidium pullulans [5] (rate (DFZ) 0.2 mg ai/l, PPZ + DFZ test), 70%; with Aureobasidium pullulans [5] (rate (DFZ) 0.8 mg ai/l, DFZ + CDL test), 90%; in the experiment on Aureobasidium pullulans [5] (rate (DFZ) 0.8 mg ai/l, DFZ + TBZ test) it was 90%; in the experiment on Aureobasidium pullulans [5] (rate (DFZ) 1.6 mg ai/l, DFZ + CDL test) it was 90%. Further, the “inh % (DFZ alone)” value is on record as 90% in the experiment with Aureobasidium pullulans [5] (rate (DFZ) 1.6 mg ai/l, DFZ + TBZ test); 70% with Aureobasidium pullulans [5] (rate (DFZ) 3.1 mg ai/l, DFZ + CDL test); 70% in the experiment with Aureobasidium pullulans [5] (rate (DFZ) 3.1 mg ai/l, DFZ + FDL test); 70% in the experiment on Aureobasidium pullulans [5] (rate (DFZ) 3.1 mg ai/l, DFZ + TBZ test); 50% with Aureobasidium pullulans [5] (rate (DFZ) 3.1 mg ai/l, PPZ + DFZ test).
